Measured values as given in patent US20230365514A1, “MACROCYCLIC COMPOUNDS” (NOVO NORDISK RESEARCH CENTRE OXFORD LIMITED, priority 2017, published 2023).

Key:
Type in all cases: binding
[1] = ITC titration with L-tryptophan; settings: 10 mM phosphate buffer pH 7.4, 298 K
Protocol: (§1) Isothermal Titration (Micro)Calorimetry (ITC) experiments were performed on a MicroCal iTC200 microcalorimeter and/or a MicroCali VP-ITC. ITC experiments were carried out at 298 K. Saccharide solutions were prepared in HPLC-grade water and allowed to equilibrate overnight if necessary. The sample cell was charged with a known concentration of receptor solution in HPLC-grade water (typically 50 µM - 200 µM). Then, aliquots (typically 1.0 µL) of carbohydrate solution were added and the evolution of heat was followed as a function of time. Heats of dilution were measured by injecting the same carbohydrate solution into HPLC-grade water, using identical conditions. For every addition, the heat of dilution was subtracted from the heat of binding using a MicroCal software programme implemented in ORIGIN 7.0. This gave an XY matrix of heat vs. total guest concentration. […] This method of analysis was used in conjunction with fits for Ka calculated using the MicroCal software to corroborate the results obtained.
(§2) Isothermal Titration MicroCalorimetry (ITC) experiments were performed on a MicroCal iTC200 microcalorimeter and/or a MicroCali VP-ITC. […] Heats of dilution were measured by injecting the same carbohydrate solution into HPLC-grade water with 10 mM phosphate buffer solution at pH 7.4, using identical conditions. […]

[2] = ITC titration with D-ribose; settings: 10 mM phosphate buffer pH 7.4, 298 K
Protocol: (§3) Isothermal Titration (Micro)Calorimetry (ITC) experiments were performed on a MicroCal iTC200 microcalorimeter and/or a MicroCali VP-ITC. ITC experiments were carried out at 298 K. Saccharide solutions were prepared in HPLC-grade water and allowed to equilibrate overnight if necessary. The sample cell was charged with a known concentration of receptor solution in HPLC-grade water (typically 50 µM - 200 µM). Then, aliquots (typically 1.0 µL) of carbohydrate solution were added and the evolution of heat was followed as a function of time. Heats of dilution were measured by injecting the same carbohydrate solution into HPLC-grade water, using identical conditions. For every addition, the heat of dilution was subtracted from the heat of binding using a MicroCal software programme implemented in ORIGIN 7.0. This gave an XY matrix of heat vs. total guest concentration. This matrix was then imported into a specially written Excel programme to fit the data to a 1:1 binding model to give a Ka. ΔG can be derived from Ka, and ΔS can be derived from ΔH and ΔG using common thermodynamic equations. This method of analysis was used in conjunction with fits for Ka calculated using the MicroCal software to corroborate the results obtained.
(§4) Isothermal Titration MicroCalorimetry (ITC) experiments were performed on a MicroCal iTC200 microcalorimeter and/or a MicroCali VP-ITC. ITC experiments were carried out at 298 K. Saccharide solutions were prepared in HPLC-grade water with 10 mM phosphate buffer solution (pH 7.4) and allowed to equilibrate overnight if necessary. The sample cell was charged with a known concentration of receptor solution in HPLC-grade water with 10 mM phosphate buffer solution at pH 7.4 (typically 50 µM - 200 µM). Then, aliquots (typically 1.0 µL) of carbohydrate solution were added and the evolution of heat was followed as a function of time. Heats of dilution were measured by injecting the same carbohydrate solution into HPLC-grade water with 10 mM phosphate buffer solution at pH 7.4, using identical conditions. […]

[3] = ITC titration with D-maltose; settings: 10 mM phosphate buffer pH 7.4, 298 K
Protocol: as §1, §2

[4] = ITC titration with D-glucose
Protocol: (§5) ITC experiments were carried out at 298 K. Saccharide solutions were prepared in HPLC-grade water with 10 mM phosphate buffer solution (pH 7.4) and allowed to equilibrate overnight if necessary. The sample cell was charged with a known concentration of receptor solution in HPLC-grade water with 10 mM phosphate buffer solution at pH 7.4 (typically 50 µM - 200 µM). Then, aliquots (typically 1.0 µL) of carbohydrate solution were added and the evolution of heat was followed as a function of time. Heats of dilution were measured by injecting the same carbohydrate solution into HPLC-grade water with 10 mM phosphate buffer solution at pH 7.4, using identical conditions. For every addition, the heat of dilution was subtracted from the heat of binding using a MicroCal software programme implemented in ORIGIN 7.0. This gave an XY matrix of heat vs. total guest concentration. This matrix was then imported into a specially written Excel programme to fit the data to a 1:1 binding model to give a Ka. ΔG can be derived from Ka and thus ΔS can be derived from ΔH and ΔG using common thermodynamic equations. […] This method consistently produced more accurate fits than fitting the data to an S-curve, as in the MicroCal software (S-curves are typically not observed for binding constants below ~104 - 105 M^-1).

[5] = ITC titration with D-cellobiose
Protocol: as §5

[6] = ITC titration with D-mannose; settings: 10 mM phosphate buffer pH 7.4, 298 K
Protocol: as §3, §4

[7] = ITC titration with cytosine; settings: 10 mM phosphate buffer pH 7.4, 298 K
Protocol: as §1, §2

[8] = ITC titration with uracil; settings: Uracil (PBS) pH 7.4, 298 K
Protocol: as §1, §2

[9] = ITC titration with myo-inositol; settings: 10 mM phosphate buffer pH 7.4, 298 K
Protocol: (§6) ITC experiments were carried out at 298 K. Saccharide solutions were prepared in HPLC-grade water with 10 mM phosphate buffer solution (pH 7.4) and allowed to equilibrate overnight if necessary. The sample cell was charged with a known concentration of receptor solution in HPLC-grade water with 10 mM phosphate buffer solution at pH 7.4 (typically 50 µM - 200 µM). Then, aliquots (typically 1.0 µL) of carbohydrate solution were added and the evolution of heat was followed as a function of time. Heats of dilution were measured by injecting the same carbohydrate solution into HPLC-grade water with 10 mM phosphate buffer solution at pH 7.4, using identical conditions. For every addition, the heat of dilution was subtracted from the heat of binding using a MicroCal software programme implemented in ORIGIN 7.0. This gave an XY matrix of heat vs. total guest concentration. This matrix was then imported into a specially written Excel programme to fit the data to a 1:1 binding model to give a Ka. ΔG can be derived from Ka and thus ΔS can be derived from ΔH and ΔG using common thermodynamic equations.

[10] = 1H NMR titration with D-cellobiose; settings: [Host]total 110 µM
Source text: The integrals of the peak at 8.02 ppm (denoted with •, see FIG. 31) were made relative to integral of the same peak (8.02 ppm) when all receptor is assumed to be saturated with guest (i.e. the final addition in the titration, row denoted with yellow). These relative integrals are then used to determine the amount of Host-Guest [HG]. This value for [HG] along with calculated values for free host [H]free and free guest [G]free can be used to calculate the Ka at each point in the titration. […] Not all Ka values calculated were included in the averaged Ka value. The earlier integrations are unreliable due to the very small intensity of the peak at 8.02 ppm. The later integrations were also deemed unreliable due to large deviations in baseline of the spectra due to the large excess of guest present. The selected values for Ka used for the average calculation and the averaged Ka itself corroborate with the results obtained from ITC.

[11] = 1H NMR titration with D-glucose
Protocol: (§7) ^1H-NMR titrations were performed on a Varian VNMR cryogenically cooled S600 spectrometer. Solutions of saccharides in D2O (99.9%), containing receptor at a known concentration to be used in the experiment, were prepared and allowed to equilibrate overnight before use if necessary. Aliquots were then added to an NMR tube containing a known concentration of receptor solution (typically 100 µM - 400 µM). The receptor concentration was therefore held constant while the carbohydrate concentration was increased. The sample tube was shaken after each addition and ^1H-NMR spectra were acquired at 298 K.
^1H-NMR titrations were performed on a Varian VNMR cryogenically cooled S600 spectrometer. Solutions of saccharides in D2O (99.9%), containing receptor at a known concentration to be used in the experiment, were prepared and allowed to equilibrate overnight before use if necessary. Aliquots were then added to an NMR tube containing a known concentration of receptor solution (typically 50 µM - 250 µM). The receptor concentration was therefore held constant while the carbohydrate concentration was increased. The sample tube was shaken after each addition, centrifuged and ^1H-NMR spectra were acquired at 298 K.
If the receptor bound saccharide slower than the NMR sample rate (“slow exchange”), the Ka was determined by analysing the NMR integral of a peak assigned to the Host-Guest complex. The variable X was defined as the integral of an isolated resonance of the complex (typically in the aromatic region) divided by the integral of all the related resonances (typically the whole aromatic region). As X is proportional to fraction of host in the bound state, the change in X could be plotted as a function of the guest concentration to give a curve which could be fitted to a 1:1 binding model to yield the association constant Ka. Mathematically, the fitting process is essentially identical to that employed for binding with fast exchange, except that the integral of a peak due to the complex replaces the chemical shift of a peak due to bound + unbound receptor. The calculation was performed using a non-linear least squares curve-fitting programme implemented within Excel. The programme yields binding constants Ka and limiting X (Xlim) as output. An estimated error for Ka was obtained from individual data points by assuming the determined Ka and Xlim.

[12] = ITC titration with gluconate; settings: Gluconate (from D-glucono-δ-lactone); 10 mM phosphate buffer pH 7.4, 298 K
Protocol: as §6

[13] = ITC titration with D-xylose; settings: 10 mM phosphate buffer pH 7.4, 298 K
Protocol: as §3, §4

[14] = ITC titration with N-acetyl-D-glucosamine; settings: 10 mM phosphate buffer pH 7.4, 298 K
Protocol: as §6

[15] = ITC titration with paracetamol; settings: 10 mM phosphate buffer pH 7.4, 298 K
Protocol: as §1, §2

[16] = 1H NMR titration with 2-deoxy-D-glucose; settings: D2O, 10 mM phosphate buffer pH 7.4, 298 K
Protocol: as §7
(§8) ^1H-NMR titrations were performed on a Varian VNMR cryogenically cooled S600 spectrometer. Solutions of saccharides in D2O (99.9%), containing receptor at a known concentration to be used in the experiment, were prepared and allowed to equilibrate overnight before use if necessary. Aliquots were then added to an NMR tube containing a known concentration of receptor solution (typically 50 µM - 250 µM). The receptor concentration was therefore held constant while the carbohydrate concentration was increased. […]
(§9) If the receptor bound saccharide slower than the NMR sample rate (“slow exchange”), the Ka was determined by analysing the NMR integral of a peak assigned to the Host-Guest complex. […] An estimated error for Ka was obtained from individual data points by assuming the determined Ka and Xlim.

[17] = ITC titration with D-glucuronic acid; settings: 10 mM phosphate buffer pH 7.4, 298 K
Protocol: as §3, §4

[18] = ITC titration with 2-deoxy-D-glucose
Protocol: as §5

[19] = ITC titration with D-fructose; settings: 10 mM phosphate buffer pH 7.4, 298 K
Protocol: as §5

[20] = ITC titration with D-galactose; settings: 10 mM phosphate buffer pH 7.4, 298 K
Protocol: as §3, §4

[21] = 1H NMR titration with myo-inositol; settings: D2O, 10 mM phosphate buffer pH 7.4, 298 K
Protocol: as §7, §8, §9

[22] = ITC titration with ascorbic acid; settings: 10 mM phosphate buffer pH 7.4, 298 K
Protocol: as §1, §2

[23] = ITC titration with L-phenylalanine; settings: 10 mM phosphate buffer pH 7.4, 298 K
Protocol: as §1, §2

[24] = ITC titration with methyl α-D-glucoside; settings: 10 mM phosphate buffer pH 7.4, 298 K
Protocol: as §6

[25] = ITC titration with uric acid; settings: Uric Acid (PBS) pH 7.4, 298 K
Protocol: as §1, §2

[26] = ITC titration with methyl β-D-glucoside
Protocol: as §5

[27] = ITC titration with D-mannitol; settings: 10 mM phosphate buffer pH 7.4, 298 K
Protocol: as §6

[28] = ITC titration with L-fucose; settings: 10 mM phosphate buffer pH 7.4, 298 K
Protocol: as §1, §2

[29] = 1H NMR ROESY of receptor with D-glucose; settings: receptor 2 mM with D-glucose 5 mM (2.5 equivalents) in D2O
Source text: Chemical exchange peaks (black, annotated) link CH protons on β-D-glucose in free and bound states. Signals for bound α-D-glucose were not observed under these conditions.

[30] = ITC titration with adenosine; settings: 10 mM phosphate buffer pH 7.4, 298 K
Protocol: as §1, §2

[31] = D-Glucose (DMEM cell culture), 10k MWCO, 10 mM phosphate buffer pH 7.4
[32] = D-Glucose (DMEM salt control), 10 mM phosphate buffer pH 7.4 with added salts
[33] = D-Glucose (Leibovitz’s L-15 cell culture), 10k MWCO, 10 mM phosphate buffer pH 7.4
[34] = D-Glucose (human serum), 10k MWCO, 10 mM phosphate buffer
[35] = D-Glucose, 10 mM phosphate buffer pH 7.4, 298 K
[36] = D-Cellobiose, 10 mM phosphate buffer pH 7.4, 298 K
[37] = 2-Deoxy-D-Glucose, 10 mM phosphate buffer pH 7.4, 298 K
[38] = Methyl β-D-Glucoside, 10 mM phosphate buffer pH 7.4, 298 K

CCc1c2c(CC)c3c(CC)c1CNC(=O)Nc1ccc(C(=O)NC(CCC(=O)NC(CCC(=O)[O-])(CCC(=O)[O-])CCC(=O)[O-])(CCC(=O)NC(CCC(=O)[O-])(CCC(=O)[O-])CCC(=O)[O-])CCC(=O)NC(CCC(=O)[O-])(CCC(=O)[O-])CCC(=O)[O-])cc1NC(=O)NCc1c(CC)c(c(CC)c(c1CC)CNC(=O)Nc1cc(C(=O)NC(CCC(=O)NC(CCC(=O)[O-])(CCC(=O)[O-])CCC(=O)[O-])(CCC(=O)NC(CCC(=O)[O-])(CCC(=O)[O-])CCC(=O)[O-])CCC(=O)NC(CCC(=O)[O-])(CCC(=O)[O-])CCC(=O)[O-])ccc1NC(=O)NC3)CNC(=O)Nc1cc(C(=O)NC(CCC(=O)NC(CCC(=O)[O-])(CCC(=O)[O-])CCC(=O)[O-])(CCC(=O)NC(CCC(=O)[O-])(CCC(=O)[O-])CCC(=O)[O-])CCC(=O)NC(CCC(=O)[O-])(CCC(=O)[O-])CCC(=O)[O-])ccc1NC(=O)NC2.[Na+].[Na+].[Na+].[Na+].[Na+].[Na+].[Na+].[Na+].[Na+].[Na+].[Na+].[Na+].[Na+].[Na+].[Na+].[Na+].[Na+].[Na+].[Na+].[Na+].[Na+].[Na+].[Na+].[Na+].[Na+].[Na+].[Na+] [Receptor 1, Triethylbenzene Receptor]
Ka (Determined by ITC) [1]: 0 M⁻¹ | TΔS (Determined by ITC) [2]: -2.32 kcal/mol | ΔG (Determined by ITC) [2]: -3.18 kcal/mol | ΔH (Determined by ITC) [2]: -5.5 kcal/mol | Ka (Determined by ITC) [3]: 0 M⁻¹ | TΔS (Determined by ITC) [4, 31]: 3.87 kcal/mol | ΔG (Determined by ITC) [4, 31]: -5.11 kcal/mol | ΔH (Determined by ITC) [4, 31]: -1.24 kcal/mol | TΔS (Determined by ITC) [4, 32]: 3.87 kcal/mol | ΔG (Determined by ITC) [4, 32]: -5.07 kcal/mol | ΔH (Determined by ITC) [4, 32]: -1.2 kcal/mol | TΔS (Determined by ITC) [4, 33]: 4.06 kcal/mol | ΔG (Determined by ITC) [4, 33]: -5.07 kcal/mol | ΔH (Determined by ITC) [4, 33]: -1 kcal/mol | TΔS (Determined by ITC) [4, 34]: 3.66 kcal/mol | ΔG (Determined by ITC) [4, 34]: -4.64 kcal/mol | ΔH (Determined by ITC) [4, 34]: -0.98 kcal/mol | Ka (Determined by ITC) ([4]; D-Glucose pH 6 (PBS), 298 K): 17,300 ± 3.8% | TΔS (Determined by ITC) ([4]; D-Glucose pH 6 (PBS), 298 K): 5.16 kcal/mol | ΔG (Determined by ITC) ([4]; D-Glucose pH 6 (PBS), 298 K): -5.78 kcal/mol | ΔH (Determined by ITC) ([4]; D-Glucose pH 6 (PBS), 298 K): -0.621 kcal/mol | Ka (Determined by ITC) ([4]; D-Glucose pH 7 (PBS), 298 K): 17,800 ± 5.5% | TΔS (Determined by ITC) ([4]; D-Glucose pH 7 (PBS), 298 K): 5.26 kcal/mol | ΔG (Determined by ITC) ([4]; D-Glucose pH 7 (PBS), 298 K): -5.81 kcal/mol | ΔH (Determined by ITC) ([4]; D-Glucose pH 7 (PBS), 298 K): -0.526 kcal/mol | Ka (Determined by ITC) ([4]; D-Glucose pH 8 (PBS), 298 K): 18,300 ± 1.8% | TΔS (Determined by ITC) ([4]; D-Glucose pH 8 (PBS), 298 K): 5.21 kcal/mol | ΔG (Determined by ITC) ([4]; D-Glucose pH 8 (PBS), 298 K): -5.81 kcal/mol | ΔH (Determined by ITC) ([4]; D-Glucose pH 8 (PBS), 298 K): -0.621 kcal/mol | Ka (Determined by ITC) [4, 35]: 18,600 ± 14.3% | TΔS (Determined by ITC) [4, 35]: 3.97 kcal/mol | ΔG (Determined by ITC) [4, 35]: -5.83 kcal/mol | ΔH (Determined by ITC) [4, 35]: -1.86 kcal/mol | Ka by ITC, fit calculated with the supplied ITC software ([4]; D-glucose in 10 mM PBS buffer (pH 6)): 19,800 ± 1290 M^-1 | Ka by ITC, fit calculated with the supplied ITC software ([4]; D-glucose in 10 mM PBS buffer (pH 7.4)): 19,100 ± 1310 M^-1 | Ka by ITC, fit calculated with the supplied ITC software ([4]; D-glucose in 10 mM PBS buffer (pH 8)): 23,400 ± 1850 M^-1 | Ka by ITC, fit calculated with the supplied ITC software ([4]; glucose in H2O): 21,000 ± 2640 M^-1 | TΔS (Determined by ITC) [5, 36]: -0.17 kcal/mol | ΔG (Determined by ITC) [5, 36]: -2.03 kcal/mol | ΔH (Determined by ITC) [5, 36]: -2.2 kcal/mol | Ka by ITC, fit calculated with the supplied ITC software ([5]; cellobiose in H2O): 36.6 ± 2.5 M⁻¹ | TΔS (Determined by ITC) [6]: 0.14 kcal/mol | ΔG (Determined by ITC) [6]: -2.94 kcal/mol | ΔH (Determined by ITC) [6]: -2.82 kcal/mol | Ka (Determined by ITC) [7]: 0 M⁻¹ | Ka (Determined by ITC) [8]: 0 M⁻¹ | TΔS (Determined by ITC) [9]: -0.574 kcal/mol | ΔG (Determined by ITC) [9]: -5.28 kcal/mol | Ka calculated at titration point (NMR) ([10]; [Guest]total 20 mM): 0.55 M⁻¹ | Ka calculated at titration point (NMR) ([10]; [Guest]total 39 mM): 29.0 M⁻¹ | Ka calculated at titration point (NMR) ([10]; [Guest]total 58 mM): 31.2 M⁻¹ | Ka calculated at titration point (NMR) ([10]; [Guest]total 96 mM): 29.4 M⁻¹ | Ka calculated at titration point (NMR) ([10]; [Guest]total 132 mM): 34.9 M⁻¹ | Ka calculated at titration point (NMR) ([10]; [Guest]total 167 mM): 81.5 M⁻¹ | Ka calculated at titration point (NMR) ([10]; [Guest]total 251 mM): 74.0 M⁻¹ | Ka calculated at titration point (NMR) ([10]; [Guest]total 329 mM): 386 M⁻¹ | Saturation of receptor on addition of 2 equivalents (0.2 mM) of D-glucose (1H NMR) ([11]; D2O with no added salts): did saturate the receptor | Saturation of receptor on addition of 2 equivalents (0.2 mM) of D-glucose (1H NMR) ([11]; with MgSO4 (0.8 mM) and CaCl2 (1.8 mM), D2O, 10 mM phosphate buffer pH 7.4, 298 K): did not saturate the receptor | Ka (Determined by ITC) [12]: 0 M⁻¹ | TΔS (Determined by ITC) [13]: 3.23 kcal/mol | ΔG (Determined by ITC) [13]: -5.14 kcal/mol | ΔH (Determined by ITC) [13]: -1.91 kcal/mol | Ka (Determined by ITC) [14]: 0 M⁻¹ | Ka (Determined by ITC) [15]: 0 M⁻¹ | Binding implied by 1H NMR spectra (no Ka determinable) [16]: binding with intermediate rate of exchange | TΔS (Determined by ITC) [17]: -1.55 kcal/mol | ΔG (Determined by ITC) [17]: -5.09 kcal/mol | ΔH (Determined by ITC) [17]: -6.64 kcal/mol | TΔS (Determined by ITC) [18, 37]: 3.2 kcal/mol | ΔG (Determined by ITC) [18, 37]: -3.9 kcal/mol | ΔH (Determined by ITC) [18, 37]: -0.693 kcal/mol | Ka by ITC, fit calculated with the supplied ITC software ([18]; 2-deoxy-D-glucose in H2O): 657 ± 90 M⁻¹ | TΔS (Determined by ITC) [19]: -2.27 kcal/mol | ΔG (Determined by ITC) [19]: -2.53 kcal/mol | ΔH (Determined by ITC) [19]: -4.78 kcal/mol | TΔS (Determined by ITC) [20]: 1 kcal/mol | ΔG (Determined by ITC) [20]: -3.08 kcal/mol | ΔH (Determined by ITC) [20]: -2.1 kcal/mol | Ka (Determined by NMR) [21]: 7328 ± 7.4% | Ka (Determined by ITC) [22]: 0 M⁻¹ | Ka (Determined by ITC) [23]: 0 M⁻¹ | Ka (Determined by ITC) [24]: 0 M⁻¹ | Ka (Determined by ITC) [25]: 0 M⁻¹ | TΔS (Determined by ITC) [26, 38]: 5.07 kcal/mol | ΔG (Determined by ITC) [26, 38]: -5.31 kcal/mol | ΔH (Determined by ITC) [26, 38]: -0.765 kcal/mol | Ka by ITC, fit calculated with the supplied ITC software ([26]; methyl-β-D-glucoside in H2O): 9120 ± 542 M⁻¹ | Ka (Determined by ITC) [27]: 0 M⁻¹ | Ka (Determined by ITC) [28]: 0 M⁻¹ | Signals for bound α-D-glucose (ROESY) [29]: not observed | Ka (Determined by ITC) [30]: 0 M⁻¹
